{"source": "patent US20230107186A1", "about": "“COBICISTAT FOR PREVENTION AND/OR TREATMENT OF CORONAVIRUS INFECTIONS” (priority 2020, published 2023)", "test_system": "S-protein", "format": "cell-based, SARS-CoV-2", "data": [{"smiles": "CC(C)c1nc(CN(C)C(=O)N[C@@H](CCN2CCOCC2)C(=O)N[C@H](CC[C@H](Cc2ccccc2)NC(=O)OCc2cncs2)Cc2ccccc2)cs1", "note": "[Cobicistat, 1,3-thiazol-5-ylmethyl [(2R,5R)-5-{[(2S)-2-({[(2-isopropyl-1,3-thiazol-4-yl)methyl](methyl)carbamoyl}amino)-4-(morpholin-4-yl)butanoyl]amino}-1,6-diphenylhexan-2-yl]carbamate]", "values": [{"measurement": "S-protein levels", "result": "decreased"}, {"measurement": "concentration range with effect in western blot analysis", "result": "5 to 10", "unit": "µM"}]}]}
